18 molecules from ChEMBL document CHEMBL5257101, “Synthesis and evaluation of sulfonamide derivatives targeting EGFR790M/L858R mutations and ALK rearrangement as anticancer agents” (Bioorg Med Chem, 2023) can be followed below.

Data set [1] has as its system NCI-H2228. Briefly: Antiproliferative activity against human NCI-H2228 cells expressing ALK assessed as inhibition of cell growth measured after 48 to 72 hrs by MTT assay. Format: functional, cell-based.
Data set [2] concerns NCI-H1975. Briefly: Antiproliferative activity against human NCI-H1975 cells expressing EGFR T790M/ L858R double mutant assessed as inhibition of cell growth measured after 48 to 72 hrs by MTT assay. The format is functional, cell-based. (Tetrazolium assays rely on reduction of a dye to a coloured formazan, in cell work by metabolically active cells.)
The test system of data set [3] is HK-2. Briefly: Effect on cell morphology in human HK-2 cells at 1 uM incubated for 24 hrs by inverted microscopic analysis. Format: functional, cell-based.
The subject of data set [4] is A549. Briefly: Antiproliferative activity against human A549 cells expressing wild type EGFR assessed as inhibition of cell growth measured after 48 to 72 hrs by MTT assay. The format is functional, cell-based.
Data set [5] is described as follows: Cytotoxicity against human EA.hy 926 cells assessed as inhibition of cell growth measured after 48 to 72 hrs by MTT assay. Format: toxicity, cell-based.
The subject of data set [6] is PC-9. The data set is described as follows: Antiproliferative activity against human PC-9 cells expressing EGFR Del19 mutant assessed as inhibition of cell growth measured after 48 to 72 hrs by MTT assay. Format: functional, cell-based.
Data set [7] can be described thus: Cytotoxicity against human HK-2 cells assessed as inhibition of cell growth measured after 48 to 72 hrs by MTT assay. Format: toxicity, cell-based.
Data set [8] can be described thus: Selectivity ratio, ratio of IC50 for human A549 cells expressing wild type EGFR to IC50 for human NCI-H1975 cells expressing EGFR T790M/ L858R double mutant by MTT assay.
A short description of data set [9]: Selectivity ratio, ratio of IC50 for human NCI-H1975 cells expressing EGFR T790M/ L858R double mutant to IC50 for human HK-2 cells by MTT assay.
For data set [10], the species on record is Homo sapiens. The data set is described as follows: Selectivity ratio, ratio of IC50 for wild type EGFR (unknown origin) to IC50 for EGFR L858R/T790M double mutant (unknown origin) by mobility shifting assay.
In data set [11] the test system is NCI-H1975. Briefly: Effect on cell morphology in human NCI-H1975 cells assessed as disappearance of cell morphology at 1 to 1000 nM incubated for 24 hrs. Format: functional, cell-based. The settings on record: dose 1-1000 nM.
Data set [12] concerns NCI-H1975. Briefly: Induction of apoptosis in human NCI-H1975 cells expressing EGFR T790M/ L858R double mutant assessed as increase in DNA breakage measured after 24 hrs by Hoechst 33342 staining based fluorescence microscopic analysis. The settings on record: dose 5-25 nM. Format: functional, cell-based.
Data set [13] has as its system NCI-H2228. Briefly: Induction of apoptosis in human NCI-H2228 cells expressing ALK assessed as increase in DNA breakage measured after 24 hrs by Hoechst 33342 staining based fluorescence microscopic analysis. The format is functional, cell-based. The settings on record: dose 5-25 nM.
Data set [14] deals with NCI-H1975. Briefly: Effect on cell morphology in human NCI-H1975 cells assessed as cell aggregation at 1 to 1000 nM incubated for 24 hrs. Format: functional, cell-based. The settings on record: dose 1-1000 nM.
Data set [15] deals with Epidermal growth factor receptor (Homo sapiens, UniProt P00533). Briefly: Inhibition of wild type EGFR (unknown origin) pre-incubated for 10 mins followed by substrate addition measured after 60 mins in presence of ATP by mobility shifting assay.
Data set [16] in a line: Selectivity ratio, ratio of IC50 for human NCI-H1975 cells expressing EGFR T790M/ L858R double mutant to IC50 for human EA.hy 926 cells by MTT assay.
Data set [17] in a line: Selectivity ratio, ratio of IC50 for human NCI-H2228 cells expressing ALK to IC50 for human HK-2 cells by MTT assay.
In data set [18] the test system is NCI-H1975. Briefly: Effect on cell morphology in human NCI-H1975 cells assessed as cell shrinkage at 1 to 1000 nM incubated for 24 hrs. The conditions noted are these: dose 1-1000 nM. The format is functional, cell-based.
In data set [19] the target is ALK tyrosine kinase receptor (Homo sapiens, UniProt Q9UM73). The data set is described as follows: Inhibition of ALK (unknown origin) pre-incubated for 10 mins followed by substrate addition measured after 60 mins in presence of ATP by mobility shifting assay.
For data set [20], the system named is NCI-H2228. The data set is described as follows: Effect on cell morphology in human NCI-H2228 cells assessed as increase of cell opacity at 1 to 1000 nM incubated for 24 hrs. Format: functional, cell-based. The settings on record: dose 1-1000 nM.
Data set [21] relates to NCI-H1975. Briefly: Antimigratory activity against human NCI-H1975 cells assessed as reduction in cell migration incubated for 24 hrs by crystal violet staining microscopy based transwell migration assay. Format: functional. The settings on record: dose 10-20 nM.
The species named for data set [22] is Homo sapiens. Briefly: Selectivity ratio, ratio of IC50 for wild type EGFR (unknown origin) to IC50 for EGFR Del19 mutant (unknown origin) by mobility shifting assay.
Data set [23] relates to NCI-H1975. Briefly: Inhibition of human NCI-H1975 cell cloning incubated for 24 hrs by inverted microscopic analysis. The conditions noted are these: dose 5-25 nM. The format is functional, cell-based.
Data set [24] deals with NCI-H2228. The data set is described as follows: Effect on cell morphology in human NCI-H2228 cells assessed as loss of cell morphology at 1 to 1000 nM incubated for 24 hrs. The format is functional, cell-based. The conditions noted are these: dose 1-1000 nM.
Data set [25] concerns the target Epidermal growth factor receptor (Homo sapiens, UniProt P00533, L858R/T790M). Briefly: Inhibition of EGFR L858R/T790M double mutant (unknown origin) pre-incubated for 10 mins followed by substrate addition measured after 60 mins in presence of ATP by mobility shifting assay.
In data set [26] the test system is NCI-H2228. Briefly: Effect on cell morphology in human NCI-H2228 cells assessed as increase of cell shrinkage at 1 to 1000 nM incubated for 24 hrs. The format is functional, cell-based. The conditions noted are these: dose 1-1000 nM.
Data set [27] concerns EA.hy 926. The data set is described as follows: Effect on cell morphology in human EA.hy 926 cells at 1 uM incubated for 24 hrs by inverted microscopic analysis. Format: functional, cell-based.
The nature of data set [28]: Selectivity ratio, ratio of IC50 for human NCI-H2228 cells expressing ALK to IC50 for human EA.hy 926 cells by MTT assay.
Data set [29] deals with NCI-H2228. The data set is described as follows: Effect on cell morphology in human NCI-H2228 cells assessed as loss of large number of floating cells at 1 to 1000 nM incubated for 24 hrs. The format is functional, cell-based. The conditions noted are these: dose 1-1000 nM.
The nature of data set [30]: Selectivity ratio, ratio of IC50 for human A549 cells expressing wild type EGFR to IC50 for human PC-9 cells expressing EGFR Del19 mutant by MTT assay.
The subject of data set [31] is NCI-H1975. The data set is described as follows: Effect on cell morphology in human NCI-H1975 cells assessed as appearance of blurred boundary region at 1 to 1000 nM incubated for 24 hrs. Format: functional, cell-based. The settings on record: dose 1-1000 nM.
Data set [32] has as its target Epidermal growth factor receptor (Homo sapiens, UniProt P00533, EX19DEL). Briefly: Inhibition of EGFR Del19 mutant (unknown origin) pre-incubated for 10 mins followed by substrate addition measured after 60 mins in presence of ATP by mobility shifting assay.
Data set [33] relates to NCI-H1975. The data set is described as follows: Antimigratory activity against human NCI-H1975 cells assessed as decrease in healing rate upto 10 nM measured upto 36 hrs by scratch-wound healing assay. Format: functional, cell-based.
Data set [34] concerns NCI-H2228. Briefly: Effect on cell morphology in human NCI-H2228 cells assessed as increase of cell fragments at 1 to 1000 nM incubated for 24 hrs. The format is functional, cell-based. The settings on record: dose 1-1000 nM.
For data set [35], the system named is NCI-H2228. The data set is described as follows: Inhibition of human NCI-H2228 cell cloning incubated for 24 hrs by inverted microscopic analysis. Format: functional, cell-based. The conditions noted are these: dose 1-20 nM.

The source made the active and inactive calls. The rule behind the calls is not given here. Some results are limits rather than exact numbers.

ALK tyrosine kinase receptor, sequence (Q9UM73 whole entry): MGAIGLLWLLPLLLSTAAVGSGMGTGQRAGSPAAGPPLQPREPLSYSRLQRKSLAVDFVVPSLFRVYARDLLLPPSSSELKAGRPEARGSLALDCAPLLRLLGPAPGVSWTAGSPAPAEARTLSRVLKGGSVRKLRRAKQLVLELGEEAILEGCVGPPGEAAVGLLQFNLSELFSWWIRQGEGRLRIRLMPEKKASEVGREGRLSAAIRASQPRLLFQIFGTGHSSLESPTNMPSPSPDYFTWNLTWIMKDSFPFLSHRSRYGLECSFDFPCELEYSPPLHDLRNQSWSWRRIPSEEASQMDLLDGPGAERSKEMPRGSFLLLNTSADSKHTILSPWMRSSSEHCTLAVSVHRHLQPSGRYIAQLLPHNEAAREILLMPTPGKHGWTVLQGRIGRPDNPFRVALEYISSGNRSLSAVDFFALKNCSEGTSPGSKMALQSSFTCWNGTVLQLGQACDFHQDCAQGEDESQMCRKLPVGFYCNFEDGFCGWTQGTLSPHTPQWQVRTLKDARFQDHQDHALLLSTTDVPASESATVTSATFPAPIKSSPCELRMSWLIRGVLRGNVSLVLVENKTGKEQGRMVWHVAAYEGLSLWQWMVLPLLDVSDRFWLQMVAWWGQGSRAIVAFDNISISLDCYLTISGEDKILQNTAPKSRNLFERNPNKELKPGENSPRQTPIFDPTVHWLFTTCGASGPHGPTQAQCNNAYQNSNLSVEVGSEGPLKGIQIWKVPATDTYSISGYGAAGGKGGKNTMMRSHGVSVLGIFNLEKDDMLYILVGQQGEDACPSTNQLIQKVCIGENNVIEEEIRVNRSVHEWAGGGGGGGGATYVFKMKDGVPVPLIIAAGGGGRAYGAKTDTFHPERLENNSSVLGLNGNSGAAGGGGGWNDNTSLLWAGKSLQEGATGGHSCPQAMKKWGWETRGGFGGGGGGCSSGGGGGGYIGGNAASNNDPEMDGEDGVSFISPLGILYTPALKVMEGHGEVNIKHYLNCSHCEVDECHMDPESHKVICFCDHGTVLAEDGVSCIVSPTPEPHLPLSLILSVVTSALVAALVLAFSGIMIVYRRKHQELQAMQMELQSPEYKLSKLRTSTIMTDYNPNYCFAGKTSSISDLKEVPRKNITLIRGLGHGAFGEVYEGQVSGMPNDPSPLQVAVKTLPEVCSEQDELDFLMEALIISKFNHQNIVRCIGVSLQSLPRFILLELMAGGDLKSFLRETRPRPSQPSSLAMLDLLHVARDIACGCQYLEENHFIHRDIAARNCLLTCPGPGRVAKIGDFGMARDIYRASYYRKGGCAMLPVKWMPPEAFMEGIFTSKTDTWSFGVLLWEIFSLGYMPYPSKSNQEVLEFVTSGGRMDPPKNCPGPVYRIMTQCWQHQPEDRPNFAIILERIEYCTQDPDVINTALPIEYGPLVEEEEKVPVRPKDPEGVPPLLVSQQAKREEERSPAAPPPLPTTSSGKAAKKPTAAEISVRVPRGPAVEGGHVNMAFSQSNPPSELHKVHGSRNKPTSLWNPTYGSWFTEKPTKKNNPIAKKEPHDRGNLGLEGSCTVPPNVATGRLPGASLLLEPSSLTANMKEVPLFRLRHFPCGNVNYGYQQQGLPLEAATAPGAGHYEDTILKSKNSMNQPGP
Epidermal growth factor receptor (Homo sapiens, UniProt P00533), sequence (P00533 whole entry): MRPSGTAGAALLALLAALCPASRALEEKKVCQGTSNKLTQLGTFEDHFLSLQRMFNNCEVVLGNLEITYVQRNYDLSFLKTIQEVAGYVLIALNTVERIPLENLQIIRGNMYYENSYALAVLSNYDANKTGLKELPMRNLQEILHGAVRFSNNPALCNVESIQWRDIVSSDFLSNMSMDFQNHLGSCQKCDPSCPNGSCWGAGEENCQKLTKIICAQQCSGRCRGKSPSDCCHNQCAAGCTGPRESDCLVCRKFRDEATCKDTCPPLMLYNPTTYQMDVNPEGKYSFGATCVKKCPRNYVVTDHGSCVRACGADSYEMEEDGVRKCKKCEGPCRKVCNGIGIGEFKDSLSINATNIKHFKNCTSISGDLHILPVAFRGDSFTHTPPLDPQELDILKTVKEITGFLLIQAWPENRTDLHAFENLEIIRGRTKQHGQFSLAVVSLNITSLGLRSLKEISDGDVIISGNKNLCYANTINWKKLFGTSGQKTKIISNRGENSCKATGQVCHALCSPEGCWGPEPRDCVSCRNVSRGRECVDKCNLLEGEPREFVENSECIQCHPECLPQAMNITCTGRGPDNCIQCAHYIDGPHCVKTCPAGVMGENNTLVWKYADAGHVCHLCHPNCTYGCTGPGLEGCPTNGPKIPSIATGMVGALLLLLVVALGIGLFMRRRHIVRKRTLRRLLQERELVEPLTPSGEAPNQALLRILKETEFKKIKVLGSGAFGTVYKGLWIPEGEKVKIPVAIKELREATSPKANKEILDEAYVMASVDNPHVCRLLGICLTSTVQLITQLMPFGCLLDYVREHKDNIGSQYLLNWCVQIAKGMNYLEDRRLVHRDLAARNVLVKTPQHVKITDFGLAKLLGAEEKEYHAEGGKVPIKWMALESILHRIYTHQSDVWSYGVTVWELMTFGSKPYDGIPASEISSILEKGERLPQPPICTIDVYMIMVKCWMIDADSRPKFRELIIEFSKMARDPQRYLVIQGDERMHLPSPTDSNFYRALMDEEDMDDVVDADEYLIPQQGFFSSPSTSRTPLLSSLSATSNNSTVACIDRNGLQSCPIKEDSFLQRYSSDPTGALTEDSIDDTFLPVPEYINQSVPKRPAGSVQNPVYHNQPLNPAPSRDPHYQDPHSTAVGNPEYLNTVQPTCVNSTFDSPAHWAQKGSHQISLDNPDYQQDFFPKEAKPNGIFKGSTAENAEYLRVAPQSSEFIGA
Epidermal growth factor receptor (Homo sapiens, UniProt P00533, EX19DEL), sequence (P00533 whole entry, looked up, stated change not applied): as the sequence (P00533 whole entry) above

The term IC50 denotes the concentration at which inhibition is half-maximal. For `CNS(=O)(=O)c1ccccc1Nc1ncnc2cc(OCCOC)c(OCCOC)cc12`, the IC50 in data set [1] and in data set [2] was above 10000 nM throughout.
With `COCCOc1cc2ncnc(N(C)c3ccccc3S(=O)(=O)N(C)C)c2cc1OCCOC`, the IC50 in data set [1] and in data set [2] was above 10000 nM throughout.
As for `C=CC(=O)Nc1cc(Nc2nccc(-c3cn(C)c4ccccc34)n2)c(OC)cc1N(C)CCN(C)C` [OSIMERTINIB], the outcome in data set [3] was inactive. Also, the half-maximal inhibitory concentration (IC50) in data set [4] was found to be 1560 nM; in data set [5], 1160 nM; in [6] it was […]; in data set [7], 2400 nM; in data set [2], […].
Take `COCCOc1cc2ncnc(Nc3ccccc3S(=O)(=O)NC3CC3)c2cc1OCCOC`: the IC50 in [1] and in data set [2] was above 10000 nM each time.
As to `COCCOc1cc2ncnc(Nc3ccccc3S(=O)(=O)N3CCCC3)c2cc1OCCOC`, the 50% inhibitory concentration (IC50) in data set [1] and in data set [2] was above 10000 nM throughout.
As for `Cc1cc(N(C)CCN(C)C)ccc1Nc1ncc(Cl)c(Nc2ccccc2S(=O)(=O)N(C)C)n1`, the concentration for half-maximal inhibition (IC50) turned out to be 55.5 nM in data set [1] and 170 nM in data set [2].
On to `C=CC(=O)Nc1cc(Nc2ncc(Cl)c(Nc3ccccc3S(=O)(=O)N(C)C3CC3)n2)c(OC)cc1N(C)CCN(C)C`, for which the values for the IC50 in data set [1] and in [2] were 24.5 nM and 100 nM, respectively.
On to `COCCOc1cc2ncnc(Nc3ccccc3S(=O)(=O)N(C)C)c2cc1OCCOC`, for which the IC50 in data set [1] and in [2] was above 10000 nM in each case.
`C=CC(=O)Nc1cc(Nc2ncc(Cl)c(Nc3ccccc3S(=O)(=O)N(C)C)n2)c(OC)cc1N(C)CCN(C)C`: the IC50 in [1] is 18 nM; in data set [2] it was 12.5 nM.
On to `COc1cc(N(C)CCN(C)C)c(NC(=O)CCl)cc1Nc1ncc(Cl)c(Nc2ccccc2S(=O)(=O)N(C)C)n1`, for which the values for the IC50 in data set [1] and in data set [2] were 104 nM and 1030 nM, respectively.
As for `C=CC(=O)Nc1cc(Nc2ncc(Cl)c(Nc3ccccc3S(=O)(=O)NC3CC3)n2)c(OC)cc1N(C)CCN(C)C`, the “Ratio IC50” value in [8] was determined as 77.25; in [9], 157.28; in [10], 21.5; in data set [16], 74.83; in data set [17], 300.27; in data set [22], 32.3. In addition, the entries for the “Ratio IC50” value in data set [28] and in data set [30] were 146.27 and 71.86, respectively. For the same molecule, the outcome in [3], in data set [11], in data set [14], in data set [18], in data set [20] and in [24] was Active. The result in data set [26], in data set [27], in [29], in [31], in data set [33] and in data set [34] was Active. The Activity result in data set [12], in data set [13] and in data set [21] was “Dose-Dependent Effect” each time. Also, the IC50 in data set [15] was 23.2 nM; in data set [19] it was 3.31 nM; in [4], 1540 nM; in data set [5] it was 1610 nM; in data set [1], 11 nM; in data set [25] it was 1.08 nM. In addition, the IC50 in data set [6] stood at 20 nM; in data set [32] it was 0.72 nM; in data set [7], 3300 nM; in data set [2], 21.5 nM. The inhibition entry in [23] and in data set [35] was “Active” each time.
With `C=CC(=O)Nc1cc(Nc2ncc(F)c(Nc3ccccc3S(=O)(=O)N(C)C)n2)c(OC)cc1N(C)CCN(C)C`, the values for the IC50 in [1] and in data set [2] were 45 nM and 67 nM, respectively.
As to `C=CC(=O)Nc1cc(Nc2ncc(F)c(Nc3ccccc3S(=O)(=O)N3CCCC3)n2)c(OC)cc1N(C)CCN(C)C`, the IC50 is 19 nM in data set [1] and 81 nM in [2].
Regarding `C=CC(=O)Nc1cc(Nc2ncc(Cl)c(Nc3ccccc3S(=O)(=O)N3CCCC3)n2)c(OC)cc1N(C)CCN(C)C`, the IC50 in [1] turned out to be 14 nM; in [2] it was 13.6 nM.
The like results for `CN(C)CCN(C)c1ccc(Nc2ncc(Cl)c(Nc3ccccc3S(=O)(=O)N(C)C)n2)cc1` were, in that order, 108 nM and 61 nM.
Take `CCN(CC)S(=O)(=O)c1ccccc1Nc1ncnc2cc(OCCOC)c(OCCOC)cc12`: the IC50 in [1] and in [2] was above 10000 nM throughout.
Turning to `Cc1cc(Nc2ncc(Cl)c(Nc3ccccc3S(=O)(=O)C(C)C)n2)c(OC(C)C)cc1C1CCNCC1` [CERITINIB], the “Ratio IC50” value in data set [17] is listed as 77.69; in [28], 228.36. For the same molecule, the IC50 stood at 1010 nM in data set [5] and 2510 nM in data set [7].
As for `CNC(=O)c1ccccc1Nc1ncnc2cc(OCCOC)c(OCCOC)cc12`, the IC50 in data set [1] and in [2] was above 10000 nM throughout.
